Measurements as given in US10870647B2, “Imidazopyridine derivative, method for preparing same, and pharmaceutical composition containing same as active ingredient for preventing or treating cancer” (DAEGU-GYEONGBUK MEDICAL INNOVATION FOUNDATION, priority 2016, dated 2020).

Legend:
Experiment in all cases: Kinase selectivity, scanMAX Kinase assay panel (DiscoverX), % control at 1 uM
Assay type in all cases: binding
[1] = target: T1, scanMAX Kinase assay panel (Homo sapiens, UniProt Q9H093); conditions: SNARK; 1 uM; read-out: Percent Control (%)
T1 construct: purchased DiscoverX
T1 sequence (Q9H093 1-628): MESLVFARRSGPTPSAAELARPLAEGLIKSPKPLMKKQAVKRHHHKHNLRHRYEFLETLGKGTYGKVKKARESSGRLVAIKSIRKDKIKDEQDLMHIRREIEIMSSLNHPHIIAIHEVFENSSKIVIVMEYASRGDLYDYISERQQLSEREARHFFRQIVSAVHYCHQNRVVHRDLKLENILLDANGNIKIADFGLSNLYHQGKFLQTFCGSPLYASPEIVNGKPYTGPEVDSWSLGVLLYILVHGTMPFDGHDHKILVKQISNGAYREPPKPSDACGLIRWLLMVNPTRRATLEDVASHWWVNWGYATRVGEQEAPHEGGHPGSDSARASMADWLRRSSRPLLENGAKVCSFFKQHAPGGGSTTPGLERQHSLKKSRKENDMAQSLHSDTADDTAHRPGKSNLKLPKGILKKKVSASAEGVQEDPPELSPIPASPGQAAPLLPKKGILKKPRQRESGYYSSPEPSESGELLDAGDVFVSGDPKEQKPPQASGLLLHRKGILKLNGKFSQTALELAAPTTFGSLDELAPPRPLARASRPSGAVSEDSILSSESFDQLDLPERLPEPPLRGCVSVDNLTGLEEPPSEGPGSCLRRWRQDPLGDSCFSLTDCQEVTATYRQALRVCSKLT
How it was run: (§1)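 Activity was called for kinases showing % control under 35, calculated from compound signal relative to positive and negative controls. Each compound screened at 1 uM against the DiscoverX scanMAX panel.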

[2] = target: T2, scanMAX Kinase assay panel (Homo sapiens, UniProt Q04912); conditions: MST1R; 1 uM; read-out: Percent Control (%)
T2 construct: purchased DiscoverX
How it was run: as §1

[3] = target: T3, scanMAX Kinase assay panel (Homo sapiens, UniProt Q96SB4); conditions: SRPK1; 1 uM; read-out: Percent Control (%)
T3 construct: purchased DiscoverX
How it was run: as §1

[4] = target: T4, scanMAX Kinase assay panel (Homo sapiens, UniProt P29323); conditions: EPHB2; 1 uM; read-out: Percent Control (%)
T4 construct: purchased DiscoverX
T4 sequence (P29323 19-1055): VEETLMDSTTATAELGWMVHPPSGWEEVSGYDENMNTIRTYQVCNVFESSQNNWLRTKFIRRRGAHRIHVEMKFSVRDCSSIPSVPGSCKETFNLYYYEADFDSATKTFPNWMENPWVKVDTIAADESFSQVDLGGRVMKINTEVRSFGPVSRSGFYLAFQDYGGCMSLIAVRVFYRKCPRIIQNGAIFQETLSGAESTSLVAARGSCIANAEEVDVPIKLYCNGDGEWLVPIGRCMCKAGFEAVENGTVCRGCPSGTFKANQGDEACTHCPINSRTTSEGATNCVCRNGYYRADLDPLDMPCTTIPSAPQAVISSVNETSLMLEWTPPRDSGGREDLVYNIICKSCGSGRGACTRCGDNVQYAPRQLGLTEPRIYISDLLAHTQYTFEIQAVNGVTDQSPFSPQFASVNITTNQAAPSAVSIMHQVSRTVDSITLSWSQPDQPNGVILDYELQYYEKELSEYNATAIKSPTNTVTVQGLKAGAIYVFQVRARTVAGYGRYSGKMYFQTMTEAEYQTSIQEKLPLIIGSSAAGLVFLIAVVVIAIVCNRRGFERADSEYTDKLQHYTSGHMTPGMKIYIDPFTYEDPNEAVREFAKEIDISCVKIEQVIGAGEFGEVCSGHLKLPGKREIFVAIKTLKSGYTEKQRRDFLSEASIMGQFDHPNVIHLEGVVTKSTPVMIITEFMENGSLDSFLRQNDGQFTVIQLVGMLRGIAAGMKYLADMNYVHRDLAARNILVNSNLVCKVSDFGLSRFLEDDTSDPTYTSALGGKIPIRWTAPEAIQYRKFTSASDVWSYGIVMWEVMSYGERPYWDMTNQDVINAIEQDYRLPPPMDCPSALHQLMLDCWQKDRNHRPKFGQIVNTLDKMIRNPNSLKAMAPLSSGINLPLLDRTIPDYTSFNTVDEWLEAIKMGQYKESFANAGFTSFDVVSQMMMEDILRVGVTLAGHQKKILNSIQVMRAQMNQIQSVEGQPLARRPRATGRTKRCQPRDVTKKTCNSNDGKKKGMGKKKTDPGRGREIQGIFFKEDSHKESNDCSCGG
How it was run: as §1

[5] = target: T5, scanMAX Kinase assay panel (Homo sapiens, UniProt Q96Q40); conditions: PFTAIRE2; 1 uM; read-out: Percent Control (%)
T5 construct: purchased DiscoverX
How it was run: as §1

[6] = target: T6, scanMAX Kinase assay panel (Homo sapiens, UniProt P53778); conditions: p38-gamma; 1 uM; read-out: Percent Control (%)
T6 construct: purchased DiscoverX
T6 sequence (P53778 1-367): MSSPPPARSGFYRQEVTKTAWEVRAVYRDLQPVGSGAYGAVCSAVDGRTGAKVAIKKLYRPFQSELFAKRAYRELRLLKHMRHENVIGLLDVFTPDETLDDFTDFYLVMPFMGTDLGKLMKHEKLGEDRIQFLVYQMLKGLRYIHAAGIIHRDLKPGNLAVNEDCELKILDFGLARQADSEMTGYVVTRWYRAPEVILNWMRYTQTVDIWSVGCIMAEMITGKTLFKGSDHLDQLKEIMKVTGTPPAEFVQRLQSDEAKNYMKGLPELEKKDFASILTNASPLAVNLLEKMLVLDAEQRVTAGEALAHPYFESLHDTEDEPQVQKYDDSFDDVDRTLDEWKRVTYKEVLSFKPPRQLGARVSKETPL
How it was run: as §1

T2 sequence (Q04912 25-1400): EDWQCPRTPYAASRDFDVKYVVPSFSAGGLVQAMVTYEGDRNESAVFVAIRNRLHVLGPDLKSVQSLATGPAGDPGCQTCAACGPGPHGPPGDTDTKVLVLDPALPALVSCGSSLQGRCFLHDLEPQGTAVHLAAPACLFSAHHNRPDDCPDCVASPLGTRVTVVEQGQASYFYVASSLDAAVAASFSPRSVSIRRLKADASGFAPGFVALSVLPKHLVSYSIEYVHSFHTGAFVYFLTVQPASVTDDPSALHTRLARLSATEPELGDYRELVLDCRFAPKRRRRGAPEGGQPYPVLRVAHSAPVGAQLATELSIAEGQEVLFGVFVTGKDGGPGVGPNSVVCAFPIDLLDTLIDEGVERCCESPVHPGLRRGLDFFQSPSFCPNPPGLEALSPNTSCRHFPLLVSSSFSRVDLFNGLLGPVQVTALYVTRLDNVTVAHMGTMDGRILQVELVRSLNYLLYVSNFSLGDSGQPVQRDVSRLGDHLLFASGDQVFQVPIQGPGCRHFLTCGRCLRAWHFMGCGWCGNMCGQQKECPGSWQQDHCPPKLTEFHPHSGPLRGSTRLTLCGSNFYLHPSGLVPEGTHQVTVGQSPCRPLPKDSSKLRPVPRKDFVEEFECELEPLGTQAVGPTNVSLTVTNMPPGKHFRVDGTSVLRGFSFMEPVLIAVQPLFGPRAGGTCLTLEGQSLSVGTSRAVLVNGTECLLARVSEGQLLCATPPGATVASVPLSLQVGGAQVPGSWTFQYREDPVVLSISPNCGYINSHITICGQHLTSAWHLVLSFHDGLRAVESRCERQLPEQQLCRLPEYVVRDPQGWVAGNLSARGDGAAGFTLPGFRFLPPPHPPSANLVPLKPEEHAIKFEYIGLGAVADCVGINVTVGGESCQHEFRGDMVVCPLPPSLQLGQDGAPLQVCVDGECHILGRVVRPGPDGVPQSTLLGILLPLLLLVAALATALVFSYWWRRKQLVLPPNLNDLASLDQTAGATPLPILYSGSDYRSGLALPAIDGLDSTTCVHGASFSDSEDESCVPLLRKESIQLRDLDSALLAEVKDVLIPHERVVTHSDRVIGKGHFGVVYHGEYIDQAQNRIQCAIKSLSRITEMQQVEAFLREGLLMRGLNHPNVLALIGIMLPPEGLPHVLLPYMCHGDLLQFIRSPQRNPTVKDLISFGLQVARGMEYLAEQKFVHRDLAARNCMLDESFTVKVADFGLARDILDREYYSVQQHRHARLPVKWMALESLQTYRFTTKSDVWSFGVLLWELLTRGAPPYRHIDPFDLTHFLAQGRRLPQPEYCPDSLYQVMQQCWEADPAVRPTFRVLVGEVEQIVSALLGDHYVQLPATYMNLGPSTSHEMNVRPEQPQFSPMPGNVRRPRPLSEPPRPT
T3 sequence (Q96SB4 whole entry): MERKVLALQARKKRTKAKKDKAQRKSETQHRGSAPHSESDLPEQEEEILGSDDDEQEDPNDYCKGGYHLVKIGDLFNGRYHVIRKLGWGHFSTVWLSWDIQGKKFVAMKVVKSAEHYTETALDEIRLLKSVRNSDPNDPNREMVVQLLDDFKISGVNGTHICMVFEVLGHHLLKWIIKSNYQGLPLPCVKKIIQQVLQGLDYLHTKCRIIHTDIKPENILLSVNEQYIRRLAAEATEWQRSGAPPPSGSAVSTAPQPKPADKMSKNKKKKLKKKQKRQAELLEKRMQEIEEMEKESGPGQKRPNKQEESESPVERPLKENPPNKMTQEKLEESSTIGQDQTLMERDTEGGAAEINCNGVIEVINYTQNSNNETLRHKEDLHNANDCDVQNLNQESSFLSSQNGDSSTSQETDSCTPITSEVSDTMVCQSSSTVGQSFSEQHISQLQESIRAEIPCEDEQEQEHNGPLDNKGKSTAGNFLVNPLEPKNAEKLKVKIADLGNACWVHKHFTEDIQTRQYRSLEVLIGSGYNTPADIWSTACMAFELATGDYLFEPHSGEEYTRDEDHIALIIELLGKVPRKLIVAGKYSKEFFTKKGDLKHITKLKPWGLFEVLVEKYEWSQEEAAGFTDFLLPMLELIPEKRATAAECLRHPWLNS
T5 sequence (Q96Q40 whole entry): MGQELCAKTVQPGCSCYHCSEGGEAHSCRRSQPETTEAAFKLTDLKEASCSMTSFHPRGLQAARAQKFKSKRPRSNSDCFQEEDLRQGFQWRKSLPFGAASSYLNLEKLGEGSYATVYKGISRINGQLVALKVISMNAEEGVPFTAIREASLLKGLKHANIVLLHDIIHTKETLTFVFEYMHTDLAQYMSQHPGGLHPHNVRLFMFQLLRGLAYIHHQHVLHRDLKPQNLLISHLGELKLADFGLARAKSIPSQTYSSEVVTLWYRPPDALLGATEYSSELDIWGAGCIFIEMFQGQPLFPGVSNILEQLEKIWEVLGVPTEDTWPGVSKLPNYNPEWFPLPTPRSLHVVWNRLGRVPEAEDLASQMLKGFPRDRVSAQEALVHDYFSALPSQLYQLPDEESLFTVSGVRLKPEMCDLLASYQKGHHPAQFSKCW

Row | SMILES | remaining binding at 1 µM [1] | remaining binding at 1 µM [2] | remaining binding at 1 µM [3] | remaining binding at 1 µM [4] | remaining binding at 1 µM [5] | remaining binding at 1 µM [6]
1 | Cc1ccc(C(=O)Nc2ccc(CN3CCN(C)CC3)c(C(F)(F)F)c2)cc1C#Cc1cnc2c(Nc3cnn(C)c3)cccn12 [Example 1, 4-methyl-3-((8-((1-methyl-1H-pyrazol-4-yl)amino)imidazo[1,2-a]pyridin-3-yl)ethynyl)-N-(4-((4-methylpiperazin-1-yl)methyl)-3-(trifluoromethyl)phenyl)benzamide] | 73% | 32% | 3% | 0% | 6% | 18%
2 | Cc1cn(-c2cc(NC(=O)c3ccc(C)c(C#Cc4cnc5c(Nc6cnn(C)c6)cccn45)c3)cc(C(F)(F)F)c2)cn1 [Example 12, 4-methyl-N-(3-(4-methyl-1H-imidazol-1-yl)-5-(trifluoromethyl)phenyl)-3-((8-((1-methyl-1H-pyrazol-4-yl)amino)imidazo[1,2-a]pyridin-3-yl)ethynyl)benzamide] | 100% | 87% | 69% | 27% | 75% | 55%
3 | Cc1ccc(NC(=O)C2(C(=O)Nc3ccc(F)cc3)CC2)cc1C#Cc1cnc2c(Nc3cnn(C(C)C)c3)cccn12 [Example 78] | 68% | 97% | 97% | 98% | 100% | 100%
